Experimental findings from patent publication EP0220153B1, “A nutritive emulsion having oxygen-transporting properties, and process for its preparation” (Kabi Pharmacia AB, priority 1985, dated 1987) are described below.

The series can be described thus: acute toxicity test on mice. The note with it: mouse, in vivo, other: injected, injected as emulsion of example 1 composition, observation time 72 hours, expressed for perfluorodecalin. The method, then:
An emulsion of the same composition and prepared in the same way as in example 1 was tested on mice for acute toxicity. Observation time was 72 hours.
It appears that the acute toxicity (LD₅₀) will be just below 30 g/kg for perfluorodecalin. Owing to the great volumes that were injected, it cannot be excluded that changes in liquid and electrolyte balance have affected the results and that, therefore, an examination of this kind not solely reflects the toxicity of the fluorocarbon compound; however, the indicated value of 30 g/kg is of such a magnitude that the preparation can be regarded as non-toxic.

Where only a bound is given, the exact number is not on record here.

A word on the LD50: it is the dose at which mortality reaches 50%. High values mean lower toxicity, low ones greater toxicity. `FC1(F)C(F)(F)C(F)(F)C2(F)C(F)(F)C(F)(F)C(F)(F)C(F)(F)C2(F)C1(F)F` (stereo not shown) [perfluorodecalin] came in with an LD50 at 72 h of under 30000 mg/kg.
